One series has as its system birds. As to conditions: in vivo; cited from earlier work.
A further series relates to bees (Apis mellifera L.). As to conditions: in small groups; cited from earlier work.
Series [1] deals with bees (Panurgus banksianus, P. calacaratus). As to conditions: in vivo; cited from earlier work.
Series [2] has as its system Deraeocoris brevis (Uhler). As to conditions: on sticky cards; cited from earlier work.
Series [3] deals with Orius tristicolor (White). As to conditions: on sticky cards; cited from earlier work.
Another series concerns house fly. The following applies: in vivo; cited from earlier work.
The test system of series [4] is green lacewing (Chrysopa nigricornis Bermeister). The following applies: in vivo; cited from earlier work.
The next series relates to bees (Apidae, Psithyrus). The following applies: in vivo; cited from earlier work.
Another series has as its system mosquito. As to conditions: in vivo; cited from earlier work.
Another series has as its system Aenictus. As to conditions: in vivo; cited from earlier work.
The next series concerns sand fly. As to conditions: in vivo; cited from earlier work.
The conditions of series [5]: 25° C.; cited from earlier work.
The subject of series [6] is sunflower seed weevils (Smicronyx spp.). The series can be described thus: Comparison to DEET product, drawing weevils out of sunflower heads. Format: in vivo. From the text: DEET is often used by entomologists in standard procedures to draw sunflower seed weevils (Smicronyx spp.) out of the heads of sunflowers. In this trial, DEET was provided in the commercially available product DEEP WOODS OFF™ repellent (S.C. Johnson and Son's, Racine, Wis.), which has approximately 28.5% active ingredient; 1.5% other isomers and 70% inert ingredients. Forty-two flowers were randomly selected from interiors of three fields. One-half of the flowers were sprayed with the DEET containing repellent while the remaining flowers were sprayed with the exemplary compound at a concentration of approximately 0.00312% methyl anthranilate, which was combined with long chained fatty acids. The number of sunflower weevils was recorded.

Series [7] relates to mosquito (Aedes aegyptis). The series can be described thus: Mosquito repellency on human subject. The class given is in vivo. The following applies: second trial; methyl anthranilate 0.00312%, DEET 0.24%; untreated head covered within one minute. From the text:
In these trials, DEET was provided in the commercially available product DEEP WOODS OFF™ repellent (S.C. Johnson & Son, Inc., Racine, Wis.), which has approximately 28.5% active ingredient; 1.5% other isomers and 70% inert ingredients.
In a first trial, a human subject was exposed to a mosquito (Aedes aegyptis) rich environment without application of the exemplary compound or DEET. Within less than one minute the subject was covered with the insects. In a second trial, the subject sprayed one unclothed arm with the exemplary compound at a rate of 0.00312% and the other unclothed arm with DEET at a concentration of 0.24%. The subject's head remained untreated. Upon returning to the test area, the subject's head was covered with the insects within one minute. […] In a third trial the subject, after removing the DEET from his/her body, reapplied the exemplary compound to unclothed arms, head and neck before returning to the test area. The subject returned to and remained in the test area for more than one hour without any of the insects landing on his/her arms, hands and head while numerous insects were observed on the clothed portions of his/her anatomy.

Series [8] deals with seed weevil (Smicronyx spp.). Kind of series: Comparison to 24% DEET on sunflower seed heads. The following applies: composition with 0.006% methyl anthranilate; DEET as 24% solution. The class given is in vivo. The source says:
An exemplary composition was compared to N,N-Diethyl-m-toluamide (DEET). The exemplary composition included an exemplary compound, methyl anthranilate (e.g., BIRDSHIELD™ at 0.006% methyl anthranilate), and an insecticide, esfenvalerate (e.g., ASANA™). A 24% DEET solution is often used in a standard evaluation process by entomologists for evaluating seed weevil (Smicronyx spp.) infestations.

Data on 19 molecules can be found in patent publication US8092790B2, “Methods of making formulations to affect insect behavior and/or bird behavior” (Bug Buster, Ltd., priority 2003, dated 2012).

As to `CC(=O)c1ccccc1N` [o-aminoacetophone, o-aminoacetophenone], the repellency to birds entry in the series with birds is given as “exhibit repellency to birds”. The effect on bees result with bees (Apis mellifera L.) is listed as “repels bees”.
Regarding `CC(C)=CCC/C(C)=C\C(=O)O` [nerolicacid], the “effect on behavior of bees” value in series [1] is reported as “affect behavior of bees”.
For `CC/C=C/CCOC(C)=O` [(E)-3-hexenyl acetate], the “attraction of Deraeocoris brevis” value in series [2] was “may be attracted”. Besides, in series [3], the “attraction of Orius tristicolor” value is recorded as “may be attracted”.
Consider bisabolene, for which the “effect on house fly” value in the series on house fly is given as “house fly repellent”.
`COC(=O)c1ccccc1O` [methyl salicylate]: in series [4], the “attraction of green lacewing” value is given as “attract”.
As to `CC(C)=CCCC(C)CCO` (centres unmarked) [3,7-dimethyl-6-octen-1-ol], in the series on bees (Apidae, Psithyrus), the “effect on behavior of bees” value is on record as “act as a territory marker”.
With `CC=CC(C)C(=O)OCC` (centres unmarked) [ethyl ester of 2-methyl-3-pentenoic acid], the “effect on house fly” value in the series on house fly is given as “house fly attractant”.
With `CCCCCCCCCC(C)OC(C)=O` (centres unmarked) [2-undecyl acetate], in the series on mosquito, the effect on mosquito entry is “mosquito attractant”.
Take `CCCCCCCO` [1-heptanol]: in series [1], the “effect on behavior of bees” value is on record as “affect behavior of bees”.
For the molecule `OCCc1ccccc1` [2-phenyl-ethanol], the “effect on behavior of bees” value in series [1] was “affect behavior of bees”.
With `CC(C)=CCC/C(C)=C/C=O` [geranial], the “effect on behavior of bees” value in series [1] is listed as “affect behavior of bees”.
Regarding `CC(C)=CCC/C(C)=C\CO` [nerol], in series [1], the “effect on behavior of bees” value was “affect behavior of bees”.
In the case of `COC(=O)c1cccnc1` [methyl nicotinate], in the series with Aenictus, the “semiochemical function for Aenictus” value is on record as “trail semiochemicals”.
As for `CC1=CCC(C(C)(C)O)CC1` (stereo not drawn) [alpha-terpineol], the “effect on sand fly” value in the series with sand fly is listed as “sand fly attractant”.
For `CC(C)=CCC/C(C)=C\C=O` [neral], in [1], the “effect on behavior of bees” value is recorded as “affect behavior of bees”.
With `CC(C)=CCC/C(C)=C/C(=O)O` [geranolic acid], the “effect on behavior of bees” value in series [1] is given as “affect behavior of bees”.
As to `CC(C)C(C(=O)OC(C#N)c1cccc(Oc2ccccc2)c1)c1ccc(Cl)cc1` (single isomer, unassigned; (+)) [Esfenvalerate, (+)Alpha-cyano-3-phenoxybenzyl-(+)-alpha-(4-chlorophenyl)isovalerate], the water solubility in [5] was below 0.3 µg/mL.
Consider `CC(C)=CCC/C(C)=C/CO` [geraniol, 3,7-dimethyl-2,6-octadien-I-ol], for which the “effect on behavior of bees” value in series [1] was “affect behavior of bees”.
As to `CCN(CC)C(=O)c1cccc(C)c1` [DEET, N,N-Diethyl-m-toluamide, reference compound], the “Number of insects, Mean” value in series [6] (Field No. 1) worked out at 4.4; in [6] (Field No. 2) it was 12; in series [6] (Field No. 3), 10.3. Also, the “Number of insects, Total” value in [6] (Field No. 1) worked out at 44; in series [6] (Field No. 2) it was 37; in series [6] (Field No. 3) it was 86. Also, the “mosquitoes on treated unclothed arm” value in series [7] is “No mosquitoes were found”. The “insects observed in sprayed sunflower seed heads” value in series [8] is reported as “No insects were observed”. In series [5], the water solubility result is listed as “approximately 912 mg/L”.
